According to US20240393292A1, “ALLERGY ANTIGEN AND EPITOPE THEREOF” (HOYU CO., LTD., priority 2019, published 2024):
One block for each substance: values may come before it.

Tested on: IgE antibodies from patients
Assay: Wheat epitope mapping (2): overlapping 10-amino-acid peptide fragments shifted by one amino acid;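 for Rank of partial sequence as epitope binding to IgE antibody: key = sequence deemed particularly important within the common 15-residue sequence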;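 for epitope sequence binding to IgE antibody, rank (Key/Preferably/More preferably): key of grades: preferably = shorter partial sequence still acting as epitope; more preferably = sequence improving IgE binding; key = particularly important sequence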
Assay type: binding, human
Summary of the method: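 Residual binding was banded as <30% none, 30–<50% poor, 50–<70% somewhat poor and ≥70% retained, relative to the parent overlapping sequence set to 100%. Values were chemiluminescent IgE signals from patient sera after subtracting secondary-antibody-only controls. The peptides were spot-synthesised 10-mers shifted by one amino acid.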

[1] = serum of patient P36 (WDEIA), sequence without X
[2] = serum of patient P22 (WDEIA), sequence without X
[3] = serum of patient P18 (WDEIA), sequence without X
[4] = serum of patient P21 (WDEIA), sequence without X

Substance: 1358 (VEDNRRALR; REGION 1..9: note = epitope) [compound 1358]
Epitope sequence binding to IgE antibody, rank of the sequence [1]: Preferably

Substance: 1450 (YLQPQQPISQ; REGION 1..10: note = epitope) [compound 1450]
Rank of partial sequence as epitope binding to IgE antibody [2]: Further preferably

Substance: 1451 (LQPQQPISQ; REGION 1..9: note = epitope) [compound 1451]
Rank of partial sequence as epitope binding to IgE antibody [2]: More preferably

Substance: 1900 (QVPLVQQ; REGION 1..7: note = epitope) [compound 1900]
epitope sequence binding to IgE antibody, rank (Key/Preferably/More preferably) (serum of patient P3 (WDEIA)): Preferably

Substance: 1858 (RTLQ; REGION 1..4: note = epitope) [compound 1858]
epitope sequence binding to IgE antibody, rank (Key/Preferably/More preferably) (serum of patient P18 (WDEIA)): Key

Substance: 1624 (FVPISG; REGION 1..6: note = epitope) [compound 1624]
Rank of partial sequence as epitope binding to IgE antibody (serum of patient P25 (WDEIA), sequence without X): Key

Substance: 2570 (QLVQQ; REGION 1..5: note = epitope) [compound 2570]
Epitope sequence binding to IgE antibody, rank of the sequence (serum of patient P27 (WDEIA), partial sequence): Key

Substance: 1645 (YNPDKVPFV; REGION 1..9: note = epitope) [compound 1645]
Rank of partial sequence as epitope binding to IgE antibody [1]: More preferably

Substance: 2515 (SFQPSQ; REGION 1..6: note = epitope) [compound 2515]
Epitope sequence binding to IgE antibody, rank of the sequence (serum of patient P51 (child, general immediate type allergy to wheat), partial sequence): Key

Substance: 1815 (PKFLK; REGION 1..5: note = epitope) [compound 1815]
epitope sequence binding to IgE antibody, rank (Key/Preferably/More preferably) (serum of patient P29 (WDEIA)): Key

Substance: 2283 (ERFEKE; REGION 1..6: note = epitope) [compound 2283]
Epitope sequence binding to IgE antibody, rank of the sequence (Key/Preferably/More preferably) [3]: Key

Substance: 1632 (YNPD; REGION 1..4: note = epitope) [compound 1632]
Rank of partial sequence as epitope binding to IgE antibody (serum of patient P29 (WDEIA), sequence without X): Key

Substance: 1843 (TVRTLQR; REGION 1..7: note = epitope) [compound 1843]
epitope sequence binding to IgE antibody, rank (Key/Preferably/More preferably) (serum of patient P9 (WDEIA)): Preferably

Substance: 2523 (PSQLNPQA; REGION 1..8: note = epitope) [compound 2523]
Epitope sequence binding to IgE antibody, rank of the sequence (serum of patient P56 (child, general immediate type allergy to wheat), partial sequence): Further preferably

Substance: 2305 (LGGIDK; REGION 1..6: note = epitope) [compound 2305]
Epitope sequence binding to IgE antibody, rank of the sequence (Key/Preferably/More preferably) (serum of patient G9 (adult, general immediate type allergy to wheat), sequence without X): Preferably

Substance: 1938 (QFPGQQ; REGION 1..6: note = epitope) [compound 1938]
epitope sequence binding to IgE antibody, rank (Key/Preferably/More preferably) (serum of patient P19 (WDEIA)): Key

Substance: 2594 (QLVQQL; REGION 1..6: note = epitope) [compound 2594]
Epitope sequence binding to IgE antibody, rank of the sequence (serum of patient P36 (WDEIA), partial sequence): Preferably

Substance: 2362 (VTEIV; REGION 1..5: note = epitope) [compound 2362]
Epitope sequence binding to IgE antibody, rank of the sequence (Key/Preferably/More preferably) [4]: Key

Now from value to substance:

Rank of partial sequence as epitope binding to IgE antibody (serum of patient P20 (WDEIA), sequence without X): Key
Substance: 1695 (EAANFT; REGION 1..6: note = epitope) [compound 1695]

Epitope sequence binding to IgE antibody, rank of the sequence (serum of patient P9 (WDEIA), sequence without X): Key
Substance: 1220 (IQQQP; REGION 1..5: note = epitope) [compound 1220]

Epitope sequence binding to IgE antibody, rank of the sequence (Key/Preferably/More preferably/Further preferably) (serum of patient P2 (WDEIA), sequence without X): Key
Substance: 1259 (LPRS; REGION 1..4: note = epitope) [compound 1259]

Epitope sequence binding to IgE antibody, rank of the sequence (serum of patient P30 (WDEIA), partial sequence): Preferably
Substance: 2736 (YKIGGIGTVP; REGION 1..10: note = epitope) [compound 2736]

Epitope sequence binding to IgE antibody, rank of the sequence (serum of patient P53 (child, general immediate type allergy to wheat), partial sequence): Preferably
Substance: 2601 (QQSTYQLVQ; REGION 1..9: note = epitope) [compound 2601]

Epitope sequence binding to IgE antibody, rank of the sequence (Key/Preferably/More preferably) [1]: Key
Substance: 2244 (RNYRVA; REGION 1..6: note = epitope) [compound 2244]

Epitope sequence binding to IgE antibody, rank of the sequence (Key/Preferably/More preferably) [3]: Key
Substance: 2357 (HDIDRCAY; REGION 1..8: note = epitope) [compound 2357]

Epitope sequence binding to IgE antibody, rank of the sequence [4]: Key
Substance: 1190 (QQFPPQQPYP; REGION 1..10: note = epitope) [compound 1190]

Epitope sequence binding to IgE antibody, rank of the sequence (serum of patient P33 (WDEIA), sequence without X): Key
Substance: 1346 (NRRALR; REGION 1..6: note = epitope) [compound 1346]

Epitope sequence binding to IgE antibody, rank of the sequence (Key/Preferably/More preferably) (serum of patient P5 (WDEIA), sequence without X): Key
Substance: 2266 (GGIDKRV; REGION 1..7: note = epitope) [compound 2266]
